From patent US8765819B2, “Composition comprising benzoic acid in combination with organic acid preservatives as active ingredients and the use thereof” (priority 2009, dated 2014) come the findings set out here.

This assay relates to Candida strains (clinical isolates from patients suffering from Candidal vaginitis). The assay can be described thus: Inhibition of Candida growth in broth pH 4.5 (turbidity after 72 hours). It is filed as cell-based. To be noted: for Candida growth, Strain 1: Strain 1, 37.5° C.; for Candida growth, Strain 2: Strain 2, 37.5° C.; for Candida growth, Strain 3: Strain 3, 37.5° C.; for Candida growth, Strain 4: Strain 4, 37.5° C.; for Candida growth, Strain 5: Strain 5, 37.5° C.; for Candida growth, Strain 6: Strain 6, 37.5° C.; for Candida growth, Strain 7: Strain 7, 37.5° C.; for Candida growth, Strain 8: Strain 8, 37.5° C.; for Candida growth, Strain 9: Strain 9, 37.5° C.; for Candida growth, Strain 10: Strain 10, 37.5° C.; for Candida growth, Strain 11: Strain 11, 37.5° C.; for number of the 11 Candida strains that grew: of 11 strains. The text has this:
1. […] Unless otherwise illustrated, the solutions in the experiments are all aqueous solutions. 2. Experimental Method: (1) Experimental Materials:
a) Experimental strains: 11 Candida strains, all of which were screened from the clinical isolates from patients suffering from Candidal vaginitis, and were capable of growing in broth comprising 0.025% (w/v) sodium benzoate.
b) Broth: 1% yeast extract powder, 9% sucrose, 0.025% Manganese sulfate (MnSO4.4H2O), 0.058% Magnesium sulphate (MgSO4.7H2O), and 0.9% lactic acid, wherein the pH value was adjusted to 4.5 and the broth was sterilized for use;
(2) Experimental Grouping:
The requirements for aseptic technique were strictly followed to prepare the following groups of sterile test tubes: • a) sodium benzoate group: a test tube containing 5 ml broth, to which 0.025% (w/v) sodium benzoate was added; • b) sodium benzoate+sodium dehydroacetate group: 6 test tubes each containing 5 ml broth, wherein 0.0025% (w/v), 0.005% (w/v), and 0.01% (w/v) sodium dehydroacetate were added to three tubes, respectively; 0.025% (w/v) sodium benzoate was added to each of the rest 3 tubes, and then 0.0025% (w/v), 0.005% (w/v), 0.01% (w/v) sodium dehydroacetate were added to them, respectively; • c) sodium benzoate+sodium propionate group: 6 test tubes each containing 5 ml broth, wherein 0.0625% (w/v), 0.125% (w/v), and 0.25% (w/v) sodium propionate were added to three tubes, respectively; 0.025% (w/v) sodium benzoate was added to each of the rest 3 tubes, and then 0.0625% (w/v), 0.125% (w/v), and 0.25% (w/v) sodium propionate were added to them, respectively; • d) sodium benzoate+potassium sorbate group: 6 test tubes each containing 5 ml broth, wherein 0.00625% (w/v), 0.0125% (w/v), and 0.025% (w/v) potassium sorbate were added to 3 tubes, respectively; 0.025% (w/v) sodium benzoate was added to each of the rest 3 tubes, and then 0.00625% (w/v), 0.0125% (w/v), and 0.025% (w/v) potassium sorbate were added to them, respectively; • e) sodium benzoate+Ethylparaben: 6 test tubes each containing 5 ml broth, wherein 0.0125% (w/v), 0.025% (w/v), and 0.05% (w/v) Ethylparaben were added to 3 tubes, respectively; 0.025% (w/v) sodium benzoate was added to each of the rest 3 tubes, and then 0.0125% (w/v), 0.025% (w/v), and 0.05% (w/v) Ethylparaben were added to them, respectively; • f) Positive control: a broth-containing test tube with Candida but without sodium benzoate, sodium dehydroacetate, sodium propionate, sorbic acid, or Ethylparaben. • g) Negative control: a broth-containing test tube without Candida, sodium benzoate, sodium dehydroacetate, sodium propionate, sorbic acid, or Ethylparaben; (3) Experimental Methods:
The Candidal suspensions were prepared under stringent aseptic manipulation techniques. The colonies of various Candidal strains were diluted with saline, respectively. The turbidity was adjusted with a turbiditor to 0.5M (about 10^8CFU/ml), and then 1 ml 0.5M bacterial solution was added to 9 ml broth and was 10 times diluted, so that each Candidal suspension comprised Candidal organisms at 10^7CFU/ml.
Under stringent aseptic manipulation techniques, 100 μl bacterial solution thus prepared was added to each of the aforesaid a˜f test tubes and the positive control tube, and no bacterial solution was added to the negative control tube g.
These tubes were incubated in a biochemical incubator at 37.5° C. for 72 hours. The turbidity of the test tubes were observed and recorded.

As to `CCOC(=O)c1ccc(O)cc1` [0.0125% Ethylparaben, Ethylparaben], the “Candida growth, Strain 1” value is recorded as “+”; the “Candida growth, Strain 2” value is “+”; the “Candida growth, Strain 3” value is “+”; the “Candida growth, Strain 4” value was “+”. For the same compound, the “Candida growth, Strain 5” value is reported as “+”; the “Candida growth, Strain 6” value was “+”; the “Candida growth, Strain 7” value was “+”; the “Candida growth, Strain 8” value is given as “+”. Moreover, the “Candida growth, Strain 9” value was “+”; the “Candida growth, Strain 10” value is given as “+”; the “Candida growth, Strain 11” value is “+”. Besides, the “number of the 11 Candida strains that grew” value (from here on “number”) (listed as 0.0125% (w/v) Ethylparaben) amounted to 11.

Consider `C/C=C/C=C/C(=O)[O-].[K+]` [0.00625% potassium sorbate, potassium sorbate], for which the “Candida growth, Strain 1” value was “+”; the “Candida growth, Strain 2” value is “+”; the “Candida growth, Strain 3” value is “+”; the “Candida growth, Strain 4” value is reported as “+”. Also, the “Candida growth, Strain 5” value is “+”; the “Candida growth, Strain 6” value is given as “+”; the “Candida growth, Strain 7” value is recorded as “+”; the “Candida growth, Strain 8” value was “+”. Further, the “Candida growth, Strain 9” value is listed as “−”; the “Candida growth, Strain 10” value is reported as “+”; the “Candida growth, Strain 11” value is recorded as “+”. Also, the “number” value (listed as 0.00625% (w/v) potassium sorbate) is recorded as 10.

Consider `CCC(=O)[O-].[Na+]` [0.0625% sodium propionate, sodium propionate], for which the “Candida growth, Strain 1” value is listed as “+”; the “Candida growth, Strain 2” value is listed as “+”; the “Candida growth, Strain 3” value is reported as “+”; the “Candida growth, Strain 4” value is recorded as “+”. In addition, the “Candida growth, Strain 5” value was “+”; the “Candida growth, Strain 6” value is “+”; the “Candida growth, Strain 7” value is on record as “+”; the “Candida growth, Strain 8” value was “+”. For the same compound, the “Candida growth, Strain 9” value is reported as “+”; the “Candida growth, Strain 10” value is on record as “+”; the “Candida growth, Strain 11” value is “+”. In addition, the “number” value (listed as 0.0625% (w/v) sodium propionate) is listed as 11.

In the case of `CC(=O)c1c([O-])cc(C)oc1=O.[Na+]` [0.01% sodium dehydroacetate, sodium dehydroacetate], the “Candida growth, Strain 1” value was “+”; the “Candida growth, Strain 2” value is on record as “−”; the “Candida growth, Strain 3” value is “+”; the “Candida growth, Strain 4” value is reported as “+”. Further, the “Candida growth, Strain 5” value is listed as “−”; the “Candida growth, Strain 6” value is on record as “+”; the “Candida growth, Strain 7” value is given as “+”; the “Candida growth, Strain 8” value was “+”. The “Candida growth, Strain 9” value is listed as “−”; the “Candida growth, Strain 10” value was “+”; the “Candida growth, Strain 11” value is reported as “−”. The “number” value (listed as 0.01% (w/v) sodium dehydroacetate) came out at 7.

On to `CCOC(=O)c1ccc(O)cc1` [0.05% Ethylparaben, Ethylparaben], for which the “Candida growth, Strain 1” value is reported as “−”; the “Candida growth, Strain 2” value is given as “+”; the “Candida growth, Strain 3” value is “+”; the “Candida growth, Strain 4” value was “+”. Also, the “Candida growth, Strain 5” value was “−”; the “Candida growth, Strain 6” value was “+”; the “Candida growth, Strain 7” value is given as “+”; the “Candida growth, Strain 8” value is reported as “+”. The “Candida growth, Strain 9” value is “−”; the “Candida growth, Strain 10” value is “+”; the “Candida growth, Strain 11” value was “+”. Moreover, the “number” value (listed as 0.05% (w/v) Ethylparaben) turned out to be 8.

Take `C/C=C/C=C/C(=O)[O-].[K+]` [0.025% potassium sorbate, potassium sorbate]: the “Candida growth, Strain 1” value is reported as “+”; the “Candida growth, Strain 2” value is reported as “−”; the “Candida growth, Strain 3” value was “+”; the “Candida growth, Strain 4” value is reported as “+”. The “Candida growth, Strain 5” value is “+”; the “Candida growth, Strain 6” value is recorded as “+”; the “Candida growth, Strain 7” value is on record as “+”; the “Candida growth, Strain 8” value is recorded as “+”. The “Candida growth, Strain 9” value was “−”; the “Candida growth, Strain 10” value is “+”; the “Candida growth, Strain 11” value is listed as “+”. Also, the “number” value (listed as 0.025% (w/v) potassium sorbate) is recorded as 9.

Regarding `CCOC(=O)c1ccc(O)cc1` [0.025% Ethylparaben, Ethylparaben], the “Candida growth, Strain 1” value is “+”; the “Candida growth, Strain 2” value is “+”; the “Candida growth, Strain 3” value is on record as “+”; the “Candida growth, Strain 4” value is recorded as “+”. The “Candida growth, Strain 5” value is on record as “+”; the “Candida growth, Strain 6” value was “+”; the “Candida growth, Strain 7” value is listed as “+”; the “Candida growth, Strain 8” value was “+”. Also, the “Candida growth, Strain 9” value is listed as “+”; the “Candida growth, Strain 10” value is “+”; the “Candida growth, Strain 11” value was “+”.

Take `CC(=O)c1c([O-])cc(C)oc1=O.[Na+]` [0.005% sodium dehydroacetate, sodium dehydroacetate]: the “Candida growth, Strain 1” value is given as “+”; the “Candida growth, Strain 2” value is “+”; the “Candida growth, Strain 3” value is “+”; the “Candida growth, Strain 4” value is “+”. The “Candida growth, Strain 5” value is recorded as “−”; the “Candida growth, Strain 6” value is given as “+”; the “Candida growth, Strain 7” value is listed as “+”; the “Candida growth, Strain 8” value is reported as “+”. The “Candida growth, Strain 9” value is on record as “−”; the “Candida growth, Strain 10” value was “+”; the “Candida growth, Strain 11” value is given as “+”.

Take `O=C([O-])c1ccccc1.[Na+]` [0.025% sodium benzoate, sodium benzoate]: the “Candida growth, Strain 1” value is given as “+”; the “Candida growth, Strain 2” value is on record as “+”; the “Candida growth, Strain 3” value is “+”; the “Candida growth, Strain 4” value is “+”. The “Candida growth, Strain 5” value was “+”; the “Candida growth, Strain 6” value was “+”; the “Candida growth, Strain 7” value is “+”; the “Candida growth, Strain 8” value is given as “+”. The “Candida growth, Strain 9” value is reported as “+”; the “Candida growth, Strain 10” value is given as “+”; the “Candida growth, Strain 11” value is “+”; the “number” value is 11/11.

Consider `C/C=C/C=C/C(=O)[O-].[K+]` [0.0125% potassium sorbate, potassium sorbate], for which the “Candida growth, Strain 1” value was “+”; the “Candida growth, Strain 2” value is reported as “−”; the “Candida growth, Strain 3” value is on record as “+”; the “Candida growth, Strain 4” value was “+”. Moreover, the “Candida growth, Strain 5” value was “+”; the “Candida growth, Strain 6” value is “+”; the “Candida growth, Strain 7” value is listed as “+”; the “Candida growth, Strain 8” value was “+”. The “Candida growth, Strain 9” value is “−”; the “Candida growth, Strain 10” value is listed as “+”; the “Candida growth, Strain 11” value is “+”.

Turning to `CCC(=O)[O-].[Na+]` [0.25% sodium propionate, sodium propionate], the “Candida growth, Strain 1” value is “−”; the “Candida growth, Strain 2” value was “−”; the “Candida growth, Strain 3” value was “+”; the “Candida growth, Strain 4” value is reported as “+”. Also, the “Candida growth, Strain 5” value was “−”; the “Candida growth, Strain 6” value is on record as “−”; the “Candida growth, Strain 7” value was “+”; the “Candida growth, Strain 8” value is “+”. The “Candida growth, Strain 9” value is on record as “−”; the “Candida growth, Strain 10” value was “+”; the “Candida growth, Strain 11” value is reported as “−”. Further, the “number” value (listed as 0.25% (w/v) sodium propionate) is on record as 5.
